The target of assay [1] is T1, limbic D-2 (Rattus norvegicus, UniProt P61169).
T1 construct: from tissue; host or cells: homogenized limbic brain tissue
Nature of the assay: limbic D-2 binding (3H-spiroperidol, homogenized limbic brain tissue). How it is done: Binding in the presence of the test compound is expressed as a percent of specific binding (total binding less binding in the presence of 1 μM (+)butaclamol). An inhibition constant (Ki) is calculated for each test compound to catagorize its limbic D-2 binding potential. The larger the number, the less potential for dopamine receptor binding and attendant side effects from administration of the antipsychotic agent.

Assay [2] concerns conditioned avoidance responding in trained male CD rats. Nature of the assay: conditioned avoidance lever response test (block of avoidance responding, i.p.). The settings on record: Rattus norvegicus, ip, from dose-effect regression line, read-out: AB50 (50% block in avoidance responding). The class given is in vivo, male CD rats (Charles River). From the text: The antipsychotic properties of the compounds of this invention were established by standard pharmacologically accepted procedures involving conditioned avoidance studies in which trained male CD rats (Charles River), 400-450 gm body weight are exposed to a fifteen second warning tone (conditioned stimulus) continued for an additional fifteen seconds accompanied by electric shock. The rat can avoid the electric shock by depression of a response lever (lever-response). A response during the initial warning tone is considered an avoidance response. The avoidance response is determined and expressed as a percentage of total trials from an appropriate number of trials and a 50% block in avoidance responding (AB50) is obtained from a dose-effect regression line. All the data is based upon (mg/kg) dosing of the animals.

T1 sequence (P61169 whole entry): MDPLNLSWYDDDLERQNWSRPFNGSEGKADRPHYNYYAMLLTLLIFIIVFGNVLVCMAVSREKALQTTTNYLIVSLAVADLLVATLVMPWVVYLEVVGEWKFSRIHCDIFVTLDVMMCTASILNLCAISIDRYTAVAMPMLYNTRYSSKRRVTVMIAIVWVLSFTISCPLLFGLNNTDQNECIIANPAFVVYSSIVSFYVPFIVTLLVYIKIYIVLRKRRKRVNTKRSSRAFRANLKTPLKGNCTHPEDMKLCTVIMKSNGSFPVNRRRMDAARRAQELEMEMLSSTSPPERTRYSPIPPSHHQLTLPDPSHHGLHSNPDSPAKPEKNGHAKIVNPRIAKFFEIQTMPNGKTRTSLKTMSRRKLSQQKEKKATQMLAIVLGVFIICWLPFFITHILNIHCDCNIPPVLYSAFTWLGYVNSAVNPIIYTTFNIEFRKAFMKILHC

As to `C[C@@H]1CN(CCCN2CCc3c([nH]c4ccccc34)C2)C[C@@H](C)N1` (relative stereo) [Example 3, 2-[3-(trans-3,5-Dimethyl-1-piperazinyl)propyl]-2,3,4,9-tetrahydro-1H-pyrido[3,4-b]indole], in assay [1] (bound), the inhibitory constant (Ki) was > 5 µM. The “percent, limbic D-2 binding” value in assay [1] (concentration not given) turned out to be 38%.

For the compound `c1cnc(N2CCN(CCCN3CCc4c([nH]c5ccccc45)C3)CC2)nc1` [Example 1, 2,3,4,9-Tetrahydro-2-[3-[4-(2-pyrimidinyl)-1-piperazinyl]propyl]-1H-pyrido[3,4-b]indole], the ED50 in assay [2] was determined as 34.7 mg/kg.

For the origin of these results see patent US4663456A, “2-(substituted piperazinylalkyl)β-carbolines useful in treatment of psychological disorders” (American Home Products Corporation, priority 1985, dated 1987).
